In this experiment the test system is Fungal Zoospores. Description: Effect of infusion on fungal zoospores in rumen fluid. Type of experiment: in vivo, sheep. The conditions noted are these: for Fungal Zoospores, MPA: MPA infused at 192 mg Sulphur/sheep/day; for Fungal Zoospores, MPA / Fungal Zoospores, log (+): log10 increase after infusion of MPA: individual sheep and Aver. n = 13; for Fungal Zoospores, log (+): log10 increase after infusion of MPA: versus control period. The procedure:
Feed was prepared as previously described (see example 4). Initially 22 sheep were fed 1 kg of alkali straw/day in the animal house for 4 days to select out sheep not eating the diet. 19 sheep were weighted and transferred to metabolism cages and feed the alkali straw diet ad-lib. Sheep were fed and on the following day the feed refusal weighted and if less then 100 g remained a further 100 g was fed; if 100-200g of feed remained the sheep was given the same amount of feed; if over 200 g of feed was left the sheep was given 100 g less feed. Over the following week another 6 sheep were moved out of the experiment (usually due to very low or erratic intakes). […] After 14 days infusion the collection period of 7 days commenced. At the end of the collection period samples of rumen digesta were taken for microbiology and other analyses. Rumen fluid was collected and fungal zoospores and total bacteria assessed as described in example 4 (the total bacteria were assessed on the same medium but without antibiotics). Cellulolytic bacteria were assessed by a most probable number count. Rumen fluid was serially diluted and subsamples of each dilution inoculated into 5 culture tubes containing an anaerobic medium containing rumen fluid and strips of filter paper. After incubation the presence of cellulolytic bacteria was detected by degradation of the paper and the numbers of positive tubes compared to tables to give a number of these bacteria in the original sample. Following the last sampling the infusion was stopped in the first group of sheep and on the following day the infusion treatment was begun in the other group of seven sheep. The second period (the crossover) was conducted in the same way as the first period with the same samples being taken at the same times. The number of zoospores in samples of strained ruminal fluid can be used to follow zoosporogenesis in the rumen and it provides a relative estimate of the size of the anaerobic fungal population. (1) Strain a sample of ruminal digesta through an open weave cloth, and collect the filtered fluid in a CO2-filled flask. (2) Serially dilute the fluid ten-fold in anaerobic dilution solution (ADS) to a final dilution of 10^−3. To do this, transfer 1 ml volumes using 1 ml disposable sterile syringes fitted with sterile 23 gauge (0.65 mm) needles to tubes containing 9 ml ADS, starting with fluid to form the 10^−1 dilution. Use a clean syringe at each dilution step. (3) Using a 1 ml syringe (and 23 ga. needle, as before) inoculate three roll tubes each with 0.2 ml of 10^−3 dilution. Immediately roll these tubes horizontally on ice until the agar sets. With the same syringe, inoculate three more roll tubes with 0.2 ml of 10^−2 dilution and roll them. Repeat with 10^−1 dilution and finally with undiluted fluid, if appropriate. (4) Incubate the roll tubes vertically at 39° C. for 5 d.

Several values for one entry are separate records, joined by “and”; a condition that tells them apart may be missing. Equal entries are not always repeated.

Turning to `O=C(O)CCS` [MPA, 3-mercaptopropanoic acid], the “Fungal Zoospores, MPA” value was 2567 per ml rumen fluid and 7083 per ml rumen fluid and 3050 per ml rumen fluid and 7283 per ml rumen fluid and 1783 per ml rumen fluid and 7250 per ml rumen fluid and 6167 per ml rumen fluid and 4417 per ml rumen fluid and 9017 per ml rumen fluid and 6467 per ml rumen fluid and 11167 per ml rumen fluid and 5383 per ml rumen fluid and 4900 per ml rumen fluid; the “Fungal Zoospores, log (+): log10 increase after infusion of MPA” value is 2.7 log10 and 2.5 log10 and 2.0 log10 and 2.3 log10 and 0.4 log10 and 0.5 log10 and 0.7 log10 and 0.8 log10 and 0.2 log10 and 0.6 log10 and 1.0 log10 (2×) and 1.1 log10. Besides, for the setting “192 mg Sulphur/day/sheep, with the exception of one animal”, the “response in numbers of rumen fungi to infusion” value is given as “strong, positive, response”. Besides, under “mean”, the “Fungal Zoospores, MPA” value came to 5887 per ml rumen fluid and the “Fungal Zoospores, log (+): log10 increase after infusion of MPA” value was found to be 1.20 log10.

These data come from patent US6458580B1, “Fungal sulphur source and method of using the same” (Commonwealth Scientific and Industrial Research Organisation, priority 1997, dated 2002).
